Converted amounts (≈) assume the structure as drawn.
Assays:
[1] = test system: P. falciparum clinical field isolates from The Gambia; experiment: Parasite reduction rate (PRR) assay with clinical isolates; type: cell-based
Aqueous solubility = type: physicochemical; settings: aqueous medium (not further specified); read-out: Aq. Solubility
CK1δ = CK1δ (Homo sapiens, UniProt P48730); experiment: Kinase screen; type: biochemical
PINK = settings: 1 μM
Microsomal stability = type: in vitro ADME; settings: mouse liver microsomes; 1 μM compound
Protocol: Compounds were incubated at 37 °C at a concentration of 1 μM with CD1 mouse liver microsomes (GIBCO, Thermo Fisher Scientific) in a suspension of 50 mM potassium phosphate buffer (pH 7.4) with a final protein concentration of 0.5 mg/mL. The reaction was started by the addition of excess NADPH and then quenched at several time points starting from time 0, then at 3, 6, 9, 15, and 30 min addition of acetonitrile to an aliquot of the sample. An internal standard was added to each sample before centrifugation to remove any precipitates before monitoring loss of parent compound by HPLC analysis using Shimadzu LC-20A (Shimadzu, UK). Prism (Graphpad, USA) was used to fit an exponential decay for substrate depletion and subsequently rate constant (k) from the peak area of the parent compound to the internal standard at each time point.

Sequence of CK1δ (P48730 whole entry): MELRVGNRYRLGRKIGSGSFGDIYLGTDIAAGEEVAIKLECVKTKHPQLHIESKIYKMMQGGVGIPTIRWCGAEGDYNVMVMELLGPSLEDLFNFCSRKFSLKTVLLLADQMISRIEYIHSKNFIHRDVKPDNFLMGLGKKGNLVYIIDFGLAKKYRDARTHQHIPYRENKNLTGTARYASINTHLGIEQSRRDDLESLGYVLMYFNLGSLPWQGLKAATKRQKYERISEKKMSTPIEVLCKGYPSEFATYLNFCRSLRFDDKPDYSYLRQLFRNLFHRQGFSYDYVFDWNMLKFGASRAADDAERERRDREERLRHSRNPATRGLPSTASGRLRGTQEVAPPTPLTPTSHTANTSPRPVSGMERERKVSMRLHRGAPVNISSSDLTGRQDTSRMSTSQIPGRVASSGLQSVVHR

SMILES: CCN(CC)Cc1ccc(OC)c(-c2cc3c(-c4ccc(C(=O)O)c(C(C)C)c4)ccnc3[nH]2)c1 [analogue 1, 4-(2-(5-((Diethylamino)methyl)-2-methoxyphenyl)-1H-pyrrolo[2,3-b]pyridin-4-yl)-2-isopropylbenzoic Acid]
- susceptibility of clinical isolates (PRR) [1]: total susceptibility
- solubility (Aqueous solubility): 8 µg/mL (≈ 17 µM)
- activity at 1 µM (CK1δ): 91%
- % Activity (PINK): 106%
- clint (in vitro intrinsic clearance) (Microsomal stability): 1.12 mL/min/g liver
